Experimental data from patent US20100331349A1, “Use of gamma-aminobutyric acid to mask or reduce an unpleasant flavour impression and preparations containing gamma-aminobutyric” (Symrise GmbH & Co. KG, priority 2004, published 2010).

Columns and labels:
[1] = Masking or reduction of unpleasant (bitter) flavour impression in preparations, rated by a group of experts; details: against caffeine, quinine, naringin, potassium chloride, magnesium sulfate, beta-lactam antibiotics
Method: To quantify the reduction in the bitter impression with the use of γ-aminobutyric acid, the bitterness of a 500 ppm caffeine solution (comparative solution; not according to the invention) and of four samples according to the invention containing 500 ppm of caffeine and differing amounts of γ-aminobutyric acid was determined by a group of experts (rating 0 [not bitter] to 10 [extremely bitter]).
To quantify the reduction in the bitter impression, the bitterness of a 12.5 ppm quinine hydrochloride solution (comparative solution; not according to the invention) and of eight samples according to the invention containing 12.5 ppm of quinine hydrochloride and differing amounts of γ-aminobutyric acid was determined by a group of experts (rating 0 [not bitter] to 5 [extremely bitter]).
To quantify the reduction in the bitter impression, the bitterness of (a) a 500 ppm caffeine solution (basic solution), (b) a sample containing 500 ppm of caffeine, 100 ppm of homoeriodictyol sodium salt and 20 ppm of γ-aminobutyric acid, and (c) a sample containing 500 ppm of caffeine and 20 ppm of γ-aminobutyric acid was determined by a group of experts (rating 1 [not bitter] to 10 [extremely bitter]). […]

[2] = WO 00/21390; cited from earlier work

Compound	concentration in preparations at which the unpleasant, in particular bitter, flavour impression is reduced or completely suppressed [1]	concentration needed as bitterness-masking agent [2]
NCCCC(=O)O [γ-aminobutyric acid]	less than 0.1 wt. %	–
polyglutamic acid	–	around 1 wt. %
